Where “and” joins values, the source holds several entries; their conditions need not be identical. Identical values can stand only once. Entries after “also recorded” stand apart in the source; their conditions may differ.
Legend:
[1] = test system: Amb a 1-specific T cell lines (TCL); assay: T cell epitope mapping of Amb a 1.3: proliferation (3H-thymidine uptake) of TCL stimulated with synthetic peptides; type: cell-based, human; details: for No. positive patients SI > 3 / No. positive patients SI > 5 / % (positive patients SI > 3) / % (positive patients SI > 5): TCL from 48 ragweed pollen-allergic patients, peptide 5 μg/ml; for No. positive patients SI > 3 / No. positive patients SI > 5: 3H-thymidine uptake after 48 hrs; for No. positive patients SI > 3 / % (positive patients SI > 3): stimulation index > 3; for No. positive patients SI > 5 / % (positive patients SI > 5): stimulation index > 5
Summary of the method: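 Amb a 1-specific TCL from ragweed-allergic patients, raised with ragweed extract or rAmb a 1.3, stimulated 48 h with 121 overlapping 12-mer peptides plus one C-terminal 13-mer (9-residue overlap) at 5 μg/ml. Proliferation by 3H-thymidine uptake; SI against the mean cpm of the ten least stimulating peptides, epitope when SI ≥3.0.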

[2] = test system: Amb a 1-specific TCL and TCC; assay: Proliferation of Amb a 1-specific TCL and TCC with allergens and chains; type: cell-based, human; details: modified (version 1) chains of Amb a 1.3
Method: Peripheral blood mononuclear cells (PBMC) were isolated from heparinized blood of allergic patients by Ficoll density gradient centrifugation. To generate allergen-specific T cell lines (TCL) and T cell clones (TCC), 1.5×10^6 PBMC were stimulated with optimal doses of ragweed or mugwort extract (4 μg/ml) or rAmb a 1.3 (10 μg/ml) in 24-well flat-bottomed culture plates (Costar, USA). After 5 days human rIL-2 (10 U/ml, Boehringer, Mannheim, Germany) were added and cultures were continued for additional 7 days. Then, T cell blasts were isolated by density centrifugation. The majority of T cell blasts was further expanded with IL-2 and irradiated PBMC. A small number of T cell blasts were used to establish monoclonal T cell cultures by limiting dilution: 0.3 T cells/well were seeded into 96 well round bottom plates (Nunclone) in the presence of 2×10^5 irradiated (60 Gy) PBMC, 0.25% v/v PHA (Gibco, USA) and rIL-2 (4 U/well) in the medium mentioned above. After 14-21 days, growing microcultures were expanded at weekly intervals with irradiated PBMC and rIL-2. The specificity of TCC was assessed in proliferation assays using irradiated allogeneic or HLA-matched PBMC or irradiated EBV-transformed allogeneic B-cells and 5 μg/ml Amb a 1.3. After 48 hours, cellular uptake of tritiated (^3H)-thymidine was performed to measure proliferation in counts per minute (cpm). When the stimulation index (SI; ratio between cpm obtained in cultures containing TCC plus autologous APC plus antigen, and cpm obtained in cultures containing TCC and APC alone) was >10, responses were considered as positive. Allergen-specific TCC were expanded by alternating turns of stimulation with autologous irradiated APC and allergen or with allogeneic feeder cells and rIL-2.
Proliferation and cytokine responses were determined.
When compared with the results of the T cell epitope recognition in Table 3, 45/46 patients (98%) would recognize one or more epitopes in the Amb a 1 alpha-chain. […]

[3] = test system: IgE of sera from ragweed allergic patients; assay: Human IgE ELISA of purified alpha chain; type: binding; details: modified (version 1) alpha chain of Amb a 1.3; 12 patients (FIG. 19)
Excerpt: If a peptide of the invention is to be used as a diagnostic reagent, it is not necessary that the peptide or protein has reduced IgE binding activity compared to the native Amb a 1 allergen. IgE binding activity of peptides can be determined by, for example, an enzyme linked immunosorbent assay (ELISA) using, for example, sera obtained from an individual (i.e. an allergic individual) that has been previously exposed to the native Amb a 1. Briefly, a peptide to be tested is coated onto wells of a microtiter plate. After washing and blocking the wells, antibody solution consisting of the serum or plasma of an allergic individual who has been exposed to the peptide being tested or the protein from which it was derived is incubated in the wells. The plasma is generally depleted of IgG before incubation. However, the depletion is not necessary if highly specific anti IgE-antibodies are used. Furthermore, allergic individuals who have not undergone specific immunotherapy have in some cases almost no detectable IgG antibodies specific for the allergen in question. […] The amount of IgE binding is then quantified and compared to the amount of IgE bound by a purified native Amb a 1 protein. Alternatively, the binding activity of a peptide can be determined by Western blot analysis. […] After incubation with the labelled secondary antibody, the amount of IgE bound is then determined and quantified. […]

[4] = test system: IgE of sera from ragweed pollen allergic patients; assay: SDS-PAGE IgE immunoblot with patients' sera; type: binding, human
Method: Membrane strips were incubated with sera from ragweed pollen allergic patients (lanes 1-29) or with serum from a non-allergic donor (lane C). Bound IgE was detected with ^125I-labeled goat anti-human IgE. Ragweed pollen-sensitized patients were recruited in Austria (lanes 1-13) or in Italy (lanes 14-29).
The proteins were analyzed via SDS-PAGE using 15% acrylamide gels and 0.1% Coomassie staining with a molecular weight standard RPN 756 (GE Healthcare Life Sciences). Sera from allergic patients were tested for positive IgE-reactivity. rAmb a 1 and rArt v 6 were separated on 15% (w/w) polyacrylamide gels and electroblotted onto a PVDF membrane. After blocking the non-specific protein binding sites with Blocking buffer (per L: 7.5 g Na2HPO4, 1 g NaH2PO4, 5 g BSA and 5 mL Tween 20), the membrane was incubated with patients' sera (diluted 1:10 in Blocking buffer) for more than 6 hours at room temperature. The membrane was washed for at least 30 minutes with Blocking buffer before it was incubated with radiolabeled [^125 I]-anti human IgE (RAST, 5 µCi, MedPro) diluted in Blocking buffer (1:40) overnight at room temperature. After a second 30-minute wash, the membrane was placed onto an imaging plate. The screen was exposed for at least 24 hours and developed using a PhosphoImager Bas-1800 II scanner for detection and the instrument's supporting software (Fujifilm).
nAmb a 1 undergoes spontaneously proteolysis during purification and it is cleaved into two chains, alpha and beta chain, respectively.

VKVLPGGMIKSN (Amb a 1 fragment) [Peptide 50]
reactivity with T cells isolated from allergic individuals [1]: reactivity with T cells
No. positive patients SI > 3 [1]: 5
No. positive patients SI > 5 [1]: 4
% (positive patients SI > 3) [1]: 10.4%
% (positive patients SI > 5) [1]: 8.3%

VLTPVQSAGMIP (Amb a 1 fragment) [Peptide 113]
No. positive patients SI > 3 [1]: 4
No. positive patients SI > 5 [1]: 1
% (positive patients SI > 3) [1]: 8.3%
% (positive patients SI > 5) [1]: 2.1%

VNNNYDRWGTYA (Amb a 1 fragment) [Peptide 88]
reactivity with T cells isolated from allergic individuals [1]: reactivity with T cells
No. positive patients SI > 3 [1]: 10
No. positive patients SI > 5 [1]: 4
% (positive patients SI > 3) [1]: 20.8%
% (positive patients SI > 5) [1]: 8.3%

VNNNYDRWGTYAIGG (Amb a 1 fragment) [Peptide 88-89]
reactivity with T cells isolated from allergic individuals [1]: reactivity with T cells
T cell activating region recognized by % of patients ([1]; classes of prevalence referring to SI>5, 48 TCL): recognized by 12.5%

VQDKGMLATVAF (Amb a 1 fragment) [Peptide 77]
reactivity with T cells isolated from allergic individuals [1]: reactivity with T cells
No. positive patients SI > 3 [1]: 7
No. positive patients SI > 5 [1]: 4
% (positive patients SI > 3) [1]: 14.6%
% (positive patients SI > 5) [1]: 8.3%

VTLGSTHVTISN (Amb a 1 fragment) [Peptide 67]
reactivity with T cells isolated from allergic individuals [1]: reactivity with T cells
No. positive patients SI > 3 [1]: 6
No. positive patients SI > 5 [1]: 2
% (positive patients SI > 3) [1]: 12.5%
% (positive patients SI > 5) [1]: 4.2%

VVNSDKTIDGRG (Amb a 1 fragment) [Peptide 37]
reactivity with T cells isolated from allergic individuals [1]: reactivity with T cells
No. positive patients SI > 3 [1]: 14
No. positive patients SI > 5 [1]: 9
% (positive patients SI > 3) [1]: 29.2%
% (positive patients SI > 5) [1]: 18.8%

WENNRQALADCA (Amb a 1 fragment) [Peptide 13]
No. positive patients SI > 3 [1]: 2
No. positive patients SI > 5 [1]: 0
% (positive patients SI > 3) [1]: 4.2%
% (positive patients SI > 5) [1]: 0.0%

WRGKADWENNRQ (Amb a 1 fragment) [Peptide 11]
No. positive patients SI > 3 [1]: 4
No. positive patients SI > 5 [1]: 2
% (positive patients SI > 3) [1]: 8.3%
% (positive patients SI > 5) [1]: 4.2%

WRSDKDLLENGA (Amb a 1 fragment) [Peptide 106]
No. positive patients SI > 3 [1]: 3
No. positive patients SI > 5 [1]: 1
% (positive patients SI > 3) [1]: 6.3%
% (positive patients SI > 5) [1]: 2.1%

YTVTSNLDDDVA (Amb a 1 fragment) [Peptide 22]
No. positive patients SI > 3 [1]: 4
No. positive patients SI > 5 [1]: 4
% (positive patients SI > 3) [1]: 8.3%
% (positive patients SI > 5) [1]: 8.3%

B1: alpha chain of Amb a 1.3 (modified version 1): recombinant modified (version 1) Amb a 1.3 alpha chain, aa 174-397, 224 amino acids; called alpha chain in Example 4 (protein)
alpha: VLPGGMIKSNDGPPILRQASDGDTINVAGSSQIWIDHCSLSKSFDGLVDVTLGSTHVTISNCKFTQQSKAILLGADDTHVQDKGMLATVAFNMFTDNVDQRMPRCRFGFFQVVNNNYDRWGTYAIGGSSAPTILCQGNRFLAPDDQIKKNVLARTGTGAAESMAWNWRSDKDLLENGAIFVTSGSDPVLTPVQSAGMIPAEPGEAAIKLTSSAGVLSCRPGAPC
modifications: Amb a 1 alpha chain
reaction of 2 TCC specific for epitopes within Amb a 1-alpha [2]: reacted
IgE-binding activity in vitro (ELISA) [3]: low/no IgE-binding activity

B2: beta chain: beta chain of naturally processed Amb a 1, N-terminal part, 138 amino acids (protein)
chain: AEGVGEILPSVNETRSLQACEAYNIIDKCWRGKADWENNRQALADCAQGFAKGTYGGKWGDVYTVTSNLDDDVANPKEGTLRFAAAQNRPLWIIFKNDMVINLNQELVVNSDKTIDGRGVKVEIINGGLTLMNVKNIIIHNINIHDVKVLPGGMIKSNDGP
modifications: Amb a 1 beta chain
notes: beta chain of naturally processed Amb a 1, N-terminal part, 138 amino acids
IgE reactivity of the Amb a 1 chains [4]: strongly recognized; also recorded: contains most of the IgE epitopes of Amb a 1
% of patients whose IgE recognized the chain ([4]; chains of nAmb a 1, sera from Italy, Canada and Austria (FIG. 9)): 90%

B3: beta-chain: recombinant modified (version 1) Amb a 1.3 beta chain, aa 26-173, 148 amino acids; called beta chain in Example 4 (protein)
beta: AEGVGEILPSVNETRSLQACEAYNIIDKCWRGKADWENNRQALADCAQGFAKGTYGGKWGDVYTVTSNLDDDVANPKEGTLRFAAAQNRPLWIIFKNDMVINLNQELVVNSDKTIDGRGVKVEIINGGLTLMNVKNIIIHNINIHDVK
modifications: Amb a 1 beta chain
proliferation, % of the response to Amb a 1 ([2]; 2 TCL with strong reactivity to Amb a 1 (FIG. 20)): 38% and 19%

— patent US9360486B2, “Allergen fragments” (Biomay AG, priority 2007, dated 2016)
